Reference: ChEMBL document CHEMBL3600382, “A-ring substituted 17β-arylsulfonamides of 17β-aminoestra-1,3,5(10)-trien-3-ol as highly potent reversible inhibitors of steroid sulfatase” (Bioorg Med Chem, 2015)

The compounds below were run on A549 (assay: Cytotoxicity against human A549 cells).
Format: functional

Question: For `C[C@]12CC[C@@H]3c4ccc(O)c([N+](=O)[O-])c4CC[C@H]3[C@@H]1CC[C@@H]2NS(=O)(=O)c1cccc(C(F)(F)F)c1`, which GI50 is on record?
Answer: 1 µM

The compounds below were run on SF-268 (assay: Cytotoxicity against human SF268 cells).
Format: functional

Question: Which GI50 does the source give for `C[C@]12CC[C@@H]3c4ccc(O)c([N+](=O)[O-])c4CC[C@H]3[C@@H]1CC[C@@H]2NS(=O)(=O)c1cccc(C(F)(F)F)c1` here?
Answer: 1 µM

The compounds below were run on MDA-MB-468 (assay: Cytotoxicity against human MDA-MB-468 cells).
Format: functional

Question: `C[C@]12CC[C@@H]3c4ccc(O)c([N+](=O)[O-])c4CC[C@H]3[C@@H]1CC[C@@H]2NS(=O)(=O)c1cccc(C(F)(F)F)c1` was tested. Which GI50 did it give?
Answer: 2.7 µM

Each compound was assayed on SNB-75 (assay: Cytotoxicity against human SNB75 cells).
Format: functional

Question: `C[C@]12CC[C@@H]3c4ccc(O)c([N+](=O)[O-])c4CC[C@H]3[C@@H]1CC[C@@H]2NS(=O)(=O)c1cccc(C(F)(F)F)c1` was tested. Which GI50 did it give?
Answer: 1 µM

What follows are compounds tested on BT-549 (assay: Cytotoxicity against human BT549 cells).
Format: functional

Question: For `C[C@]12CC[C@@H]3c4ccc(O)c([N+](=O)[O-])c4CC[C@H]3[C@@H]1CC[C@@H]2NS(=O)(=O)c1cccc(C(F)(F)F)c1`, which GI50 is on record?
Answer: 1.9 µM

Each compound was assayed on T47D (assay: Cytotoxicity against human T47D cells).
Format: functional

Question: `C[C@]12CC[C@@H]3c4ccc(O)c([N+](=O)[O-])c4CC[C@H]3[C@@H]1CC[C@@H]2NS(=O)(=O)c1cccc(C(F)(F)F)c1` was tested. Which GI50 did it give?
Answer: 1.8 µM

Each compound was assayed on UACC-257 (assay: Cytotoxicity against human UACC257 cells).
Format: functional

Question: With `C[C@]12CC[C@@H]3c4ccc(O)c([N+](=O)[O-])c4CC[C@H]3[C@@H]1CC[C@@H]2NS(=O)(=O)c1cccc(C(F)(F)F)c1` as the compound, how does the GI50 read?
Answer: 1 µM

Each compound was assayed on PC-3 (assay: Cytotoxicity against human PC3 cells).
Format: functional

Question: With `C[C@]12CC[C@@H]3c4ccc(O)c([N+](=O)[O-])c4CC[C@H]3[C@@H]1CC[C@@H]2NS(=O)(=O)c1cccc(C(F)(F)F)c1` as the compound, how does the GI50 read?
Answer: 1 µM

Each compound was assayed on CCRF-CEM (assay: Cytotoxicity against human CCRF-CEM cells).
Format: functional

Question: How did the GI50 turn out when `C[C@]12CC[C@@H]3c4ccc(O)c([N+](=O)[O-])c4CC[C@H]3[C@@H]1CC[C@@H]2NS(=O)(=O)c1cccc(C(F)(F)F)c1` was run?
Answer: 1 µM

These compounds were tested on SR (assay: Cytotoxicity against human SR cells).
Format: functional

Question: `C[C@]12CC[C@@H]3c4ccc(O)c([N+](=O)[O-])c4CC[C@H]3[C@@H]1CC[C@@H]2NS(=O)(=O)c1cccc(C(F)(F)F)c1` was tested. Which GI50 did it give?
Answer: 1 µM

What follows are compounds tested on SW-620 (assay: Cytotoxicity against human SW620 cells).
Format: functional

Question: Which GI50 does the source give for `C[C@]12CC[C@@H]3c4ccc(O)c([N+](=O)[O-])c4CC[C@H]3[C@@H]1CC[C@@H]2NS(=O)(=O)c1cccc(C(F)(F)F)c1` here?
Answer: 1 µM

The compounds below were run on RPMI-8226 (assay: Cytotoxicity against human RPMI8226 cells).
Format: functional

Question: How did the GI50 turn out when `C[C@]12CC[C@@H]3c4ccc(O)c([N+](=O)[O-])c4CC[C@H]3[C@@H]1CC[C@@H]2NS(=O)(=O)c1cccc(C(F)(F)F)c1` was run?
Answer: 1 µM

These compounds were tested on KM12 (assay: Cytotoxicity against human KM12 cells).
Format: functional

Question: Which GI50 does the source give for `C[C@]12CC[C@@H]3c4ccc(O)c([N+](=O)[O-])c4CC[C@H]3[C@@H]1CC[C@@H]2NS(=O)(=O)c1cccc(C(F)(F)F)c1` here?
Answer: 1 µM

Each compound was assayed on COLO 205 (assay: Cytotoxicity against human COLO205 cells).
Format: functional

Question: `C[C@]12CC[C@@H]3c4ccc(O)c([N+](=O)[O-])c4CC[C@H]3[C@@H]1CC[C@@H]2NS(=O)(=O)c1cccc(C(F)(F)F)c1` was tested. Which GI50 did it give?
Answer: 1 µM

What follows are compounds tested on M14 (assay: Cytotoxicity against human M14 cells).
Format: functional

Question: `C[C@]12CC[C@@H]3c4ccc(O)c([N+](=O)[O-])c4CC[C@H]3[C@@H]1CC[C@@H]2NS(=O)(=O)c1cccc(C(F)(F)F)c1` was tested. Which GI50 did it give?
Answer: 1 µM

These compounds were tested on SK-MEL-2 (assay: Cytotoxicity against human SK-MEL-2 cells).
Format: functional

Question: How did the GI50 turn out when `C[C@]12CC[C@@H]3c4ccc(O)c([N+](=O)[O-])c4CC[C@H]3[C@@H]1CC[C@@H]2NS(=O)(=O)c1cccc(C(F)(F)F)c1` was run?
Answer: 1 µM

Each compound was assayed on U-251 (assay: Cytotoxicity against human U251 cells).
Format: functional

Question: How did the GI50 turn out when `C[C@]12CC[C@@H]3c4ccc(O)c([N+](=O)[O-])c4CC[C@H]3[C@@H]1CC[C@@H]2NS(=O)(=O)c1cccc(C(F)(F)F)c1` was run?
Answer: 1 µM

The compounds below were run on OVCAR-5 (assay: Cytotoxicity against human OVCAR5 cells).
Format: functional

Question: With `C[C@]12CC[C@@H]3c4ccc(O)c([N+](=O)[O-])c4CC[C@H]3[C@@H]1CC[C@@H]2NS(=O)(=O)c1cccc(C(F)(F)F)c1` as the compound, how does the GI50 read?
Answer: 1 µM

Each compound was assayed on SK-MEL-5 (assay: Cytotoxicity against human SK-MEL-5 cells).
Format: functional

Question: `C[C@]12CC[C@@H]3c4ccc(O)c([N+](=O)[O-])c4CC[C@H]3[C@@H]1CC[C@@H]2NS(=O)(=O)c1cccc(C(F)(F)F)c1` was tested. Which GI50 did it give?
Answer: 1 µM

These compounds were tested on HCC 2998 (assay: Cytotoxicity against human HCC2998 cells).
Format: functional

Question: Which GI50 does the source give for `C[C@]12CC[C@@H]3c4ccc(O)c([N+](=O)[O-])c4CC[C@H]3[C@@H]1CC[C@@H]2NS(=O)(=O)c1cccc(C(F)(F)F)c1` here?
Answer: 1 µM

The compounds below were run on SN12C (assay: Cytotoxicity against human SN12C cells).
Format: functional

Question: `C[C@]12CC[C@@H]3c4ccc(O)c([N+](=O)[O-])c4CC[C@H]3[C@@H]1CC[C@@H]2NS(=O)(=O)c1cccc(C(F)(F)F)c1` was tested. Which GI50 did it give?
Answer: 1 µM

What follows are compounds tested on NCI-H23 (assay: Cytotoxicity against human NCI-H23 cells).
Format: functional

Question: Which GI50 does the source give for `C[C@]12CC[C@@H]3c4ccc(O)c([N+](=O)[O-])c4CC[C@H]3[C@@H]1CC[C@@H]2NS(=O)(=O)c1cccc(C(F)(F)F)c1` here?
Answer: 1 µM

What follows are compounds tested on NCI-H460 (assay: Cytotoxicity against human NCI-H460 cells).
Format: functional

Question: `C[C@]12CC[C@@H]3c4ccc(O)c([N+](=O)[O-])c4CC[C@H]3[C@@H]1CC[C@@H]2NS(=O)(=O)c1cccc(C(F)(F)F)c1` was tested. Which GI50 did it give?
Answer: 1 µM

Each compound was assayed on MOLT-4 (assay: Cytotoxicity against human MOLT4 cells).
Format: functional

Question: `C[C@]12CC[C@@H]3c4ccc(O)c([N+](=O)[O-])c4CC[C@H]3[C@@H]1CC[C@@H]2NS(=O)(=O)c1cccc(C(F)(F)F)c1` was tested. Which GI50 did it give?
Answer: 1 µM
